Patent EP0398230B1, “Antiviral, highly water soluble, stable, crystalline salts of 2',3'-dideoxyinoside monohydrate, 2',3'-dideoxy-2',3'-didehydrothymidine monohydrate and 2',3'-dideoxy-2'-fluoroinosine hemihydrate” (priority 1989, dated 1990)
Like-named read-outs stand apart in the source and are kept apart here.

Columns and labels:
physchem = conditions: water, pH 10, water, thermodynamic from solid
[1] = 5 weeks at 70°C

Aqueous Solution Stability, loss (1 week at 50°C) [%]	Aqueous Solution Stability, loss (1 week at 70°C) [%]	Solid State Stability [1]	SMILES	solubility (physchem) [mg/mL]
			O=c1[nH]cnc2c1ncn2[C@@H]1O[C@H](CO)C[C@@H]1F [Sodium F-ddI Hemihydrate, sodium-2',3'-dideoxy-2'-fluoroinosine]	~400
5	10	No loss	OC[C@@H]1CC[C@H](n2cnc3c(O)ncnc32)O1.[Na] [Na-DDI·H2O, sodium-2',3'-dideoxyinosine]	
